Assay results reported in ChEMBL document CHEMBL1201862, “PubChem BioAssay data set” (2004).
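The compound was tested at five concentrations on cells cultured in 96-well plates, with a 48-hour exposure period. Abbreviation: GI50, concentration required for 50% inhibition of growth.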 Calls of active or inactive are those of the source. No stated cut-off is given here; in the data, active = GI50 up to about 1.1 µM and inactive = higher.

Experiments:
Experiment in all cases: DTP human tumour cell line panel, 48 h
[1] = test system: M14
[2] = test system: SF-268
[3] = test system: IGROV-1
[4] = test system: Malme-3M
[5] = test system: OVCAR-4
[6] = test system: NCI-H23
[7] = test system: MDA-MB-231
[8] = test system: NCI-H460
[9] = test system: UACC-62
[10] = test system: MDA-MB-435
[11] = test system: MOLT-4
[12] = test system: 786-0
[13] = test system: Hs-578T
[14] = test system: MCF7
[15] = test system: U-251
[16] = test system: MDA-N
[17] = test system: PC-3
[18] = test system: SN12C
[19] = test system: KM-20L2
[20] = test system: SNB-19
[21] = test system: EKVX
[22] = test system: HOP-62
[23] = test system: LXFL 529
[24] = test system: SR
[25] = test system: SK-MEL-28
[26] = test system: OVCAR-5
[27] = test system: SK-OV-3
[28] = test system: SK-MEL-2
[29] = test system: UO-31
[30] = test system: CAKI-1
[31] = test system: OVCAR-8
[32] = test system: SF-539
[33] = test system: NCI-H522
[34] = test system: DMS-273
[35] = test system: K562
[36] = test system: ACHN
[37] = test system: HCC 2998
[38] = test system: KM12
[39] = test system: SK-MEL-5
[40] = test system: LOX IMVI
[41] = test system: UACC-257
[42] = test system: NCI-H226
[43] = test system: HT-29
[44] = test system: TK-10
[45] = test system: HOP-92
[46] = test system: DU-145
[47] = test system: SW-620
[48] = test system: COLO 205
[49] = test system: DLD-1
[50] = test system: HCT-15
[51] = test system: SF-295
[52] = test system: HCT-116
[53] = test system: A549
[54] = test system: HL-60
[55] = test system: OVCAR-3
[56] = test system: T47D
[57] = test system: NCI/ADR-RES
[58] = test system: SNB-78
[59] = test system: RPMI-8226
[60] = test system: CCRF-CEM
[61] = test system: BT-549
[62] = test system: M19-MEL
[63] = test system: RXF 393
[64] = test system: DMS-114
[65] = test system: HOP-18
[66] = test system: SNB-75
[67] = test system: A498

For Cc1ccc(C(=O)Oc2ccccc2)cc1/N=N/N(C)C, the GI50 [1] was > 100 µM (inactive), the GI50 [2] was > 87.7 µM (inactive) and the GI50 [3] was > 100 µM (inactive). For the same compound, the GI50 [4] was > 100 µM (inactive), the GI50 [5] was > 86.9 µM (inactive) and the GI50 [6] was > 58.6 µM (inactive). For the same compound, the GI50 [7] was > 100 µM (inactive), the GI50 [8] was > 100 µM (inactive) and the GI50 [9] was > 100 µM (inactive). The GI50 [10] was > 100 µM (inactive), the GI50 [11] was > 100 µM (inactive) and the GI50 [12] was > 100 µM (inactive). For the same compound, the GI50 [13] was > 100 µM (inactive), the GI50 [14] was 36.8 µM (inactive) and the GI50 [15] was > 100 µM (inactive). The GI50 [16] was > 100 µM (inactive), the GI50 [17] was > 100 µM (inactive) and the GI50 [18] was > 100 µM (inactive). The GI50 [19] was 38.3 µM (inactive), the GI50 [20] was > 92.3 µM (inactive) and the GI50 [21] was > 100 µM (inactive). For the same compound, the GI50 [22] was > 100 µM (inactive), the GI50 [23] was > 100 µM (inactive) and the GI50 [24] was > 100 µM (inactive). For the same compound, the GI50 [25] was > 100 µM (inactive), the GI50 [26] was > 100 µM (inactive) and the GI50 [27] was > 100 µM (inactive). For the same compound, the GI50 [28] was > 100 µM (inactive), the GI50 [29] was > 100 µM (inactive) and the GI50 [30] was > 100 µM (inactive). The GI50 [31] was > 100 µM (inactive), the GI50 [32] was > 100 µM (inactive) and the GI50 [33] was 42.7 µM (inactive). For the same compound, the GI50 [34] was 61.9 µM (inactive), the GI50 [35] was 76.4 µM (inactive) and the GI50 [36] was > 100 µM (inactive). For the same compound, the GI50 [37] was > 100 µM (inactive), the GI50 [38] was 53.3 µM (inactive) and the GI50 [39] was > 100 µM (inactive). The GI50 [40] was 59.8 µM (inactive), the GI50 [41] was > 100 µM (inactive) and the GI50 [42] was > 100 µM (inactive). The GI50 [43] was 37.1 µM (inactive), the GI50 [44] was > 100 µM (inactive) and the GI50 [45] was > 100 µM (inactive). For the same compound, the GI50 [46] was > 100 µM (inactive), the GI50 [47] was > 100 µM (inactive) and the GI50 [48] was > 100 µM (inactive). For the same compound, the GI50 [49] was > 100 µM (inactive), the GI50 [50] was > 70.3 µM and the GI50 [51] was > 69.3 µM (inactive). For the same compound, the GI50 [52] was > 100 µM (inactive), the GI50 [53] was > 100 µM (inactive) and the GI50 [54] was 78 µM (inactive). For the same compound, the GI50 [55] was 43.4 µM (inactive), the GI50 [56] was 71.8 µM (inactive) and the GI50 [57] was > 100 µM (inactive). For the same compound, the GI50 [58] was > 100 µM (inactive), the GI50 [59] was > 100 µM (inactive) and the GI50 [60] was 91.8 µM (inactive). For the same compound, the GI50 [61] was > 100 µM (inactive) and the GI50 [62] was > 100 µM (inactive).

In the case of COc1ncn(C2C=C(CO)C(O)C2O)c(=O)n1 (centres undefined), the GI50 [1] is reported as > 100 µM (inactive), the GI50 [2] is reported as > 100 µM (inactive) and the GI50 [3] is reported as > 100 µM (inactive). For the same compound, the GI50 [4] was > 100 µM (inactive), the GI50 [5] was > 100 µM (inactive) and the GI50 [63] was > 100 µM (inactive). The GI50 [8] was > 100 µM (inactive), the GI50 [9] was > 100 µM (inactive) and the GI50 [11] was > 100 µM (inactive). For the same compound, the GI50 [12] was > 100 µM (inactive), the GI50 [15] was > 100 µM (inactive) and the GI50 [18] was > 100 µM (inactive). The GI50 [19] was > 100 µM (inactive), the GI50 [20] was < 0.01 µM (active) and the GI50 [64] was > 100 µM (inactive). For the same compound, the GI50 [65] was > 100 µM (inactive), the GI50 [21] was > 100 µM (inactive) and the GI50 [22] was > 100 µM (inactive). For the same compound, the GI50 [23] was > 100 µM (inactive), the GI50 [25] was > 100 µM (inactive) and the GI50 [27] was > 100 µM (inactive). For the same compound, the GI50 [28] was > 100 µM (inactive), the GI50 [29] was > 100 µM (inactive) and the GI50 [66] was > 100 µM (inactive). For the same compound, the GI50 [67] was > 100 µM (inactive), the GI50 [30] was < 0.01 µM (active) and the GI50 [31] was > 100 µM (inactive). The GI50 [32] was > 100 µM (inactive), the GI50 [33] was > 100 µM (inactive) and the GI50 [34] was > 100 µM (inactive). For the same compound, the GI50 [35] was > 100 µM (inactive), the GI50 [36] was > 100 µM (inactive) and the GI50 [37] was > 100 µM (inactive). The GI50 [38] was > 100 µM (inactive), the GI50 [39] was > 100 µM (inactive) and the GI50 [41] was > 100 µM (inactive). For the same compound, the GI50 [42] was > 100 µM (inactive), the GI50 [44] was > 100 µM (inactive) and the GI50 [47] was < 0.01 µM (active). For the same compound, the GI50 [48] was > 100 µM (inactive), the GI50 [49] was > 100 µM (inactive) and the GI50 [50] was > 100 µM. The GI50 [52] was > 100 µM (inactive), the GI50 [53] was > 100 µM (inactive) and the GI50 [54] was > 100 µM (inactive). The GI50 [55] was > 100 µM (inactive), the GI50 [58] was > 100 µM (inactive) and the GI50 [59] was > 100 µM (inactive).

With COC1C=COC2(C)Oc3c(C)c(O)c4c(O)c(c(/C=N/N5CCN(N)CC5)c(O)c4c3C2=O)NC(=O)C(C)=CC=CC(C)C(O)C(C)C(O)C(C)C(OC(C)=O)C1C (centres undefined) the GI50 [1] was > 100 µM (inactive), the GI50 [2] was 62.5 µM (inactive) and the GI50 [3] was > 100 µM (inactive). The GI50 [4] was > 100 µM (inactive), the GI50 [5] was 70.5 µM (inactive) and the GI50 [63] was 34.7 µM (inactive). For the same compound, the GI50 [6] was 31.9 µM (inactive), the GI50 [9] was > 100 µM (inactive) and the GI50 [11] was 39 µM (inactive). The GI50 [12] was > 100 µM (inactive), the GI50 [15] was > 100 µM (inactive) and the GI50 [18] was > 100 µM (inactive). The GI50 [19] was > 100 µM (inactive), the GI50 [20] was > 100 µM (inactive) and the GI50 [64] was 64.4 µM (inactive). For the same compound, the GI50 [21] was > 100 µM (inactive), the GI50 [22] was > 100 µM (inactive) and the GI50 [23] was 63.4 µM (inactive). For the same compound, the GI50 [24] was 34.1 µM (inactive), the GI50 [25] was 34.4 µM (inactive) and the GI50 [26] was > 100 µM (inactive). For the same compound, the GI50 [27] was > 100 µM (inactive), the GI50 [28] was > 100 µM (inactive) and the GI50 [29] was 41.7 µM (inactive). For the same compound, the GI50 [66] was 34.7 µM (inactive), the GI50 [67] was > 100 µM (inactive) and the GI50 [30] was > 100 µM (inactive). The GI50 [31] was 88.3 µM (inactive), the GI50 [32] was > 100 µM (inactive) and the GI50 [33] was 34 µM (inactive). For the same compound, the GI50 [34] was > 100 µM (inactive), the GI50 [35] was 44.4 µM (inactive) and the GI50 [36] was > 100 µM (inactive). For the same compound, the GI50 [37] was > 100 µM (inactive), the GI50 [38] was 68.4 µM (inactive) and the GI50 [39] was 84.3 µM (inactive). For the same compound, the GI50 [40] was 69 µM (inactive), the GI50 [41] was > 100 µM (inactive) and the GI50 [42] was > 100 µM (inactive). For the same compound, the GI50 [43] was 38.4 µM (inactive), the GI50 [44] was > 100 µM (inactive) and the GI50 [45] was 65.6 µM (inactive). For the same compound, the GI50 [47] was 48 µM (inactive), the GI50 [48] was 37.8 µM (inactive) and the GI50 [49] was 82.6 µM (inactive). The GI50 [50] was 80.7 µM, the GI50 [51] was 84.3 µM (inactive) and the GI50 [52] was 30.7 µM (inactive). For the same compound, the GI50 [53] was > 100 µM (inactive), the GI50 [54] was 35.2 µM (inactive) and the GI50 [58] was 88.1 µM (inactive). For the same compound, the GI50 [59] was 29.7 µM (inactive), the GI50 [60] was 20.1 µM (inactive) and the GI50 [62] was 42 µM (inactive).
